Data: patent US20230151003A1, “COMPOUNDS AND METHODS OF USE” (Exelixis, Inc., priority 2020, published 2023)

Target: T1, Mer (Homo sapiens, UniProt Q12866)
T1 construct: host or cells: 293A cells (Thermo Fisher #R70507)
T1 sequence (Q12866 21-999): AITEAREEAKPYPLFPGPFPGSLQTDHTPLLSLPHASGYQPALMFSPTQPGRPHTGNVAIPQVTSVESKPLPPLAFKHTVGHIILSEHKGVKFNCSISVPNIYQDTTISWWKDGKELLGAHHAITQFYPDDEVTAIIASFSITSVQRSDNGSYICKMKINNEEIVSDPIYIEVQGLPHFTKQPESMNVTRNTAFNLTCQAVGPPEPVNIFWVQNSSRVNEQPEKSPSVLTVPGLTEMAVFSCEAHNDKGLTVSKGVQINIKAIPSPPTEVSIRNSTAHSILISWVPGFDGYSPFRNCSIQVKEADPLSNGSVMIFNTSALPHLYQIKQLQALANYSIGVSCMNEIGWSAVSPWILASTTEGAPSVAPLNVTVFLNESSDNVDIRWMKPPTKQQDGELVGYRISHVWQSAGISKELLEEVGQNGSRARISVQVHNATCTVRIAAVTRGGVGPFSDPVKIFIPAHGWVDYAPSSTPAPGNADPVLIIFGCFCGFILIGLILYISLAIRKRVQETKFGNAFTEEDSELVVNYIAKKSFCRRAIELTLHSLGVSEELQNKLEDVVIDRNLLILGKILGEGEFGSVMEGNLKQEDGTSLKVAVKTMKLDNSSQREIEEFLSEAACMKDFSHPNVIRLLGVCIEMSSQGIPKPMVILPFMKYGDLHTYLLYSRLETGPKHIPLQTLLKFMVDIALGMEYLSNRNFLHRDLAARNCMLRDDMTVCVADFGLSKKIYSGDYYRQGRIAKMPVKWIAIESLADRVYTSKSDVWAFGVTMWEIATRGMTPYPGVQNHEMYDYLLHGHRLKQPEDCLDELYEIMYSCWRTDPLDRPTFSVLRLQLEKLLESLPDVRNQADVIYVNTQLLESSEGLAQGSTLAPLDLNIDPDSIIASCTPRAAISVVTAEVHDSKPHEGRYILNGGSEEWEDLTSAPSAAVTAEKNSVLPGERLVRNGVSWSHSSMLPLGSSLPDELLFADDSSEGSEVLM
Assay: Mer autophosphorylation ELISA in transient transfected 293A cells
Assay type: cell-based
Conditions: Table 3 Cellular Activities; MERTK-transfected 293A cells, phospho-Mer ELISA
Method in brief: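 293A cells transiently transfected with human MERTK DNA, replated after 24 h, then treated 1 h with 8-point compound dilutions in serum-free medium (0.3% DMSO). Lysates assayed by phospho-Mer sandwich ELISA against phospho-Mer standard; DMSO = 100%, reference inhibitor = 0% activity; IC50 by 4-parameter logistic fit.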

IC50, ≤ 100 nM:
COc1cc2nccc(Oc3ccc(NC(=O)c4cnc(C)c(-c5cncs5)c4O)cc3F)c2nc1OC [Compound 141, N-[4-[(6,7-Dimethoxy-1,5-naphthyridin-4-yl)oxy]-3-fluorophenyl]-4-hydroxy-6-methyl-5-(1,3-thiazol-5-yl)pyridine-3-carboxamide]
COc1cc2nccc(Oc3ccc(NC(=O)c4cnc(C)c(-c5ccc(C(C)C)o5)c4O)cc3F)c2nc1OC [Compound 154, N-[4-[(6,7-Dimethoxy-1,5-naphthyridin-4-yl)oxy]-3-fluorophenyl]-4-hydroxy-6-methyl-5-(5-propan-2-ylfuran-2-yl)pyridine-3-carboxamide]
COc1cc2nccc(Oc3ccc(NC(=O)c4c(C)nc(C)c(-c5ccoc5)c4O)cc3F)c2nc1OC [Compound 112, N-[4-[(6,7-Dimethoxy-1,5-naphthyridin-4-yl)oxy]-3-fluoro-phenyl]-5-(3-furyl)-4-hydroxy-2,6-dimethyl-pyridine-3-carboxamide]
COc1cc2nccc(Oc3ccc(NC(=O)c4c(C)ncc(-c5cc(C)cs5)c4O)cc3F)c2nc1OC [Compound 125, N-[4-[(6,7-Dimethoxy-1,5-naphthyridin-4-yl)oxy]-3-fluorophenyl]-4-hydroxy-2-methyl-5-(4-methylthiophen-2-yl)pyridine-3-carboxamide]
COc1cnc2c(Oc3ccc(NC(=O)c4cnc(C)c(-c5ccco5)c4O)cc3F)ccnc2c1 [Compound 96, N-[3-Fluoro-4-[(7-methoxy-1,5-naphthyridin-4-yl)oxy]phenyl]-5-(2-furyl)-4-hydroxy-6-methyl-pyridine-3-carboxamide]
COc1cc2nccc(Oc3ccc(NC(=O)c4c(C)n(C)c(C)c(-c5cccs5)c4=O)cc3)c2nc1OC [Compound 167, N-[4-[(6,7-Dimethoxy-1,5-naphthyridin-4-yl)oxy]phenyl]-1,2,6-trimethyl-4-oxo-5-thiophen-2-ylpyridine-3-carboxamide]
COc1cc2nccc(Oc3ccc(NC(=O)c4cnc(C)c(-c5ccc(C)s5)c4O)cc3F)c2nc1OC [Compound 94, N-[4-[(6,7-Dimethoxy-1,5-naphthyridin-4-yl)oxy]-3-fluoro-phenyl]-4-hydroxy-6-methyl-5-(5-methyl-2-thienyl) pyridine-3-carboxamide]
COc1cc2nccc(Oc3ccc(NC(=O)c4cnc(C)c(-c5cccs5)c4O)cc3F)c2nc1OC [Compound 90, N-[4-[(6,7-Dimethoxy-1,5-naphthyridin-4-yl)oxy]-3-fluoro-phenyl]-4-hydroxy-6-methyl-5-(2-thienyl)pyridine-3-carboxamide]
COc1cc2nccc(Oc3ccc(NC(=O)c4cnc(C)c(-c5cscn5)c4O)cc3F)c2nc1OC [Compound 142, N-[4-[(6,7-Dimethoxy-1,5-naphthyridin-4-yl)oxy]-3-fluorophenyl]-4-hydroxy-6-methyl-5-(1,3-thiazol-4-yl)pyridine-3-carboxamide]
COc1cnc2c(Oc3ccc(NC(=O)c4cnc(C)c(-c5ccc(C)o5)c4O)cc3F)ccnc2c1 [Compound 97, N-[3-Fluoro-4-[(7-methoxy-1,5-naphthyridin-4-yl)oxy]phenyl]-4-hydroxy-6-methyl-5-(5-methyl-2-furyl)pyridine-3-carboxamide]
COc1cc2nccc(Oc3ccc(NC(=O)c4c(C)n(C)c(C)c(-c5ccco5)c4=O)cc3F)c2nc1OC [Compound 160, N-[4-[(6,7-Dimethoxy-1,5-naphthyridin-4-yl)oxy]-3-fluorophenyl]-5-(furan-2-yl)-1,2,6-trimethyl-4-oxopyridine-3-carboxamide]
COc1cc2nccc(Oc3ccc(NC(=O)c4c(C)nc(C)c(-c5cc(C(F)(F)F)nn5C)c4O)cc3F)c2nc1OC [Compound 138]
COc1cnc2c(Oc3ccc(NC(=O)c4cnc(C)c(-c5ccsc5)c4O)cc3F)ccnc2c1 [Compound 98, N-[3-Fluoro-4-[(7-methoxy-1,5-naphthyridin-4-yl)oxy]phenyl]-4-hydroxy-6-methyl-5-(3-thienyl)pyridine-3-carboxamide]
COc1cc2nccc(Oc3ccc(NC(=O)c4c(C)ncc(-c5ccc(C)o5)c4O)cc3F)c2nc1OC [Compound 120, N-[4-[(6,7-Dimethoxy-1,5-naphthyridin-4-yl)oxy]-3-fluorophenyl]-4-hydroxy-2-methyl-5-(5-methylfuran-2-yl)pyridine-3-carboxamide]
COc1cc2nccc(Oc3ccc(NC(=O)c4cnc(C)c(-c5sccc5C)c4O)cc3F)c2nc1OC [Compound 103, N-[4-[(6,7-Dimethoxy-1,5-naphthyridin-4-yl)oxy]-3-fluoro-phenyl]-4-hydroxy-6-methyl-5-(3-methyl-2-thienyl) pyridine-3-carboxamide]
COc1cc2nccc(Oc3ccc(NC(=O)c4c(C)nc(C)c(-c5cc(C)nn5C)c4O)cc3F)c2nc1OC [Compound 109, N-[4-[(6,7-Dimethoxy-1,5-naphthyridin-4-yl)oxy]-3-fluoro-phenyl]-5-(2,5-dimethylpyrazol-3-yl)-4-hydroxy-2,6-dimethyl-pyridine-3-carboxamide]
COc1cc2nccc(Oc3ccc(NC(=O)c4c(C)nc(C)c(-c5ccc(C)o5)c4O)cc3F)c2nc1OC [Compound 110, N-[4-[(6,7-Dimethoxy-1,5-naphthyridin-4-yl)oxy]-3-fluoro-phenyl]-4-hydroxy-2,6-dimethyl-5-(5-methyl-2-furyl)pyridine-3-carboxamide]
COc1cc2nccc(Oc3ccc(NC(=O)c4cnc(C)c(-c5nccs5)c4O)cc3F)c2nc1OC [Compound 143, N-[4-[(6,7-Dimethoxy-1,5-naphthyridin-4-yl)oxy]-3-fluorophenyl]-4-hydroxy-6-methyl-5-(1,3-thiazol-2-yl)pyridine-3-carboxamide]
CCc1ccc(-c2c(C)ncc(C(=O)Nc3ccc(Oc4ccnc5cc(OC)c(OC)nc45)c(F)c3)c2O)o1 [Compound 153, N-[4-[(6,7-Dimethoxy-1,5-naphthyridin-4-yl)oxy]-3-fluorophenyl]-5-(5-ethylfuran-2-yl)-4-hydroxy-6-methylpyridine-3-carboxamide]
COc1cnc2c(Oc3ccc(NC(=O)c4cnc(C)c(-c5cc(C)cs5)c4O)cc3F)ccnc2c1 [Compound 102, N-[3-Fluoro-4-[(7-methoxy-1,5-naphthyridin-4-yl)oxy]phenyl]-4-hydroxy-6-methyl-5-(4-methyl-2-thienyl) pyridine-3-carboxamide]
COc1cc2nccc(Oc3ccc(NC(=O)c4cc(Br)c(C)n(-c5ccc(F)cn5)c4=O)cc3F)c2nc1OC [Compound 55, 5-Bromo-N-[4-[(6,7-dimethoxy-1,5-naphthyridin-4-yl)oxy]-3-fluorophenyl]-1-(5-fluoropyridin-2-yl)-6-methyl-2-oxopyridine-3-carboxamide]
COc1cc2nccc(Oc3cc(F)c(NC(=O)c4c(C)n(C)c(C)c(-c5ccco5)c4=O)cc3F)c2nc1OC [Compound 163, N-[4-[(6,7-Dimethoxy-1,5-naphthyridin-4-yl)oxy]-2,5-difluorophenyl]-5-(furan-2-yl)-1,2,6-trimethyl-4-oxopyridine-3-carboxamide]
COc1cc2nccc(Oc3ccc(NC(=O)c4c(C)nc(C)c(-c5cccs5)c4O)cc3F)c2nc1OC [Compound 107]
COc1cc2nccc(Oc3ccc(NC(=O)c4c(C)nc(C)c(-c5ccc(C)s5)c4O)cc3F)c2nc1OC [Compound 111, N-[4-[(6,7-Dimethoxy-1,5-naphthyridin-4-yl)oxy]-3-fluoro-phenyl]-4-hydroxy-2,6-dimethyl-5-(5-methyl-2-thienyl)pyridine-3-carboxamide]
COc1cc2nccc(Oc3ccc(NC(=O)c4c(C)nc(C)c(-c5cc(C)cs5)c4O)cc3F)c2nc1OC [Compound 137, N-[4-[(6,7-Dimethoxy-1,5-naphthyridin-4-yl)oxy]-3-fluorophenyl]-4-hydroxy-2,6-dimethyl-5-(4-methylthiophen-2-yl)pyridine-3-carboxamide]
COc1cc2nccc(Oc3ccc(NC(=O)c4cnc(C)c(-c5ccoc5)c4O)cc3F)c2nc1OC [Compound 95, N-[4-[(6,7-Dimethoxy-1,5-naphthyridin-4-yl)oxy]-3-fluoro-phenyl]-5-(3-furyl)-4-hydroxy-6-methyl-pyridine-3-carboxamide]
COc1cc2nccc(Oc3ccc(NC(=O)c4c(C)nc(C)c(-c5ccsc5)c4O)cc3F)c2nc1OC [Compound 106]
